Source: patent US20120022121A1, “INDOLES, DERIVATIVES AND ANALOGS THEREOF AND USES THEREFOR” (priority 2007, published 2012)

Columns and labels:
K562/Dox [1] = test: Cell viability MTT assay, 96 h; assay type: cell-based; conditions: Homo sapiens, doxorubicin-resistant
Protocol: (§1) Cells were seeded in 96-well plates and incubated with different concentrations of compound 13, 68 or other anticancer drugs for 96 h. Cell viability was quantitated by MTT assay. […] Table 4 is a comparison of the IC50 of compounds 13, 68 and other anticancer drugs in the K562 and doxorubicin-resistant K562/DOX cell lines.

K562 [2] = test: Cell viability MTT assay, 96 h; assay type: cell-based; conditions: Homo sapiens
Protocol: as §1

DU-145 = test: Cell viability SRB assay, 96 h; assay type: cell-based; conditions: Homo sapiens, DU-145, 96 h
Protocol: (§2) Cell viability (LNCaP, PC-3 prostate, DU145, PPC-1, and TSU-Pr1 prostate cancer cell lines, HT-29 colon cancer cell line, and MCF-7 breast cancer cell line) was quantitated using the sulforhodamine B (SRB) assay after 96 h coincubation with different concentrations of compound in 96-well plates. Cell viability of leukemia cells (K562 and doxorubicin-resistant K562/Dox) was quantitated by MTT assay after 96 h coincubation with different concentrations of compound in 96-well plates. Drug-induced apoptosis was determined by anti-histone ELISA assay and DNA laddering. Cell cycle progression was assessed by propidium iodide staining and fluorescence-activated cell sorting (FACS) analysis. In vitro tubulin polymerization assay was determined by CytoDYNAMIX ScreenTM3 (CDS-03) kits according to the manufacturer's instructions. Anti-apoptosis protein (Bcl-2 and Bcl-xl) and pro-apoptosis protein (Bax) were examined in LNCaP and PC-3 after 24 h incubation with different concentrations of compound 13 by Western blot assay. In vivo PC-3 xenograft studies were conducted by i.v. dosing of 50 mg/kg, 100 mg/kg and 150 mg/kg for 2 weeks.
(§3) Cells were plated in 96-well plates at a density of 800-5,000 cells/well, depending on the cell line, in their required growth media containing 10% fetal bovine serum. Preliminary studies were performed with each cell line using a variety of cell densities and incubation times to determine appropriate seeding densities. The compound of interest was dissolved in DMSO, diluted in cell culture medium (final DMSO concentration was less than 0.5% v/v), and added to quadruplicate wells at final concentrations ranging from 0 to 100 μM. Control wells to which only drug-free vehicle was added were included as negative controls.
(§4) Cells were incubated for 96 hour at 37° C. in a humidified atmosphere containing 5% carbon dioxide.
(§5) Cells were stained with SRB solution. […] WinNonlin was provided by a Pharsight Academic License to The Ohio State University.

LNCaP = test: Cell viability SRB assay, 96 h; assay type: cell-based; conditions: Homo sapiens
Protocol: as §2, §3, §4, §5

PC-3 [3] = test: Cell viability SRB assay, 96 h; assay type: cell-based; conditions: Homo sapiens, PC-3, 96 h
Protocol: as §2, §3, §4, §5

TSU = test: Cell viability SRB assay, 96 h; assay type: cell-based; conditions: Homo sapiens, TSU (TSU-Pr1)
Protocol: as §2, §3, §4, §5

HT-29 [4] = test: Cell viability SRB assay, 96 h; assay type: cell-based; conditions: Homo sapiens, HT-29, 96 h
Protocol: as §2, §3, §4, §5

PPC-1 = test: Cell viability SRB assay, 96 h; assay type: cell-based; conditions: Homo sapiens, PPC-1, 96 h
Protocol: as §2, §3, §4, §5

CV-1 = test: Cell viability SRB assay, 96 h; assay type: cell-based; conditions: Cercopithecidae, CV-1 fibroblast cell line
Protocol: as §3, §4

MCF-7 [5] = test: Cell viability SRB assay, 96 h; assay type: cell-based; conditions: Homo sapiens, MCF7; MCF-7, 96 h
Protocol: as §2, §3, §4, §5

K562 [6] = test: Growth inhibition assay (MTT, 96 h); assay type: cell-based; conditions: Homo sapiens, K562 (parental)
Source text: (§6) MTT (3-(4,5-dimethylthiazol-2-yl)-2,5-diphenyltetrazolium bromide) assay was also used for the leukemia cell lines. […] Cells were stained with SRB solution or MTT solution.

MES-SA/DX5 = test: Growth inhibition assay (96 h); assay type: cell-based, human; conditions: MES-SA/DX5 vs MES-SA (P-gp)
Source text: as §6

HEK293-pcDNA3.1 = test: Growth inhibition assay (96 h); assay type: cell-based, human; conditions: Homo sapiens, HEK293-pcDNA3.1 (control for MRP)
Source text: as §6

MES-SA/DX5 xenografts = test: In vivo antitumor efficacy, MES-SA/DX5 xenograft; conditions: MES-SA/DX5 xenograft, 5 mg/kg, q2d, i.p.
Protocol: (§7) The control group was treated with vehicle (10% DMSO in PEG300).

MCF-7 [7] = test: Growth inhibition assay (SRB, 96 h); assay type: cell-based; conditions: Homo sapiens, MCF7; MCF-7, 96 h
Source text: as §6

TSU-Pr1 = test: Growth inhibition assay (SRB, 96 h); assay type: cell-based; conditions: Homo sapiens, TSU-Pr1, 96 h
Source text: as §6

HT-29 [8] = test: Growth inhibition assay (SRB, 96 h); assay type: cell-based; conditions: Homo sapiens, HT-29, 96 h
Source text: as §6

K562/Dox [9] = test: Growth inhibition assay (MTT, 96 h); assay type: cell-based, human
Source text: as §6

[10] = test system: MRP1 (over-expressed in the cells); test: Growth inhibition assay (96 h); assay type: cell-based, human; conditions: human, HEK293 cells over-expressing MRP1 (HEK293-MRP1); HEK293-MRP1, MRP1 over-expressed, 96 h
HEK293-MRP1 = test: Growth inhibition assay (96 h); assay type: cell-based, human; conditions: HEK293-MRP1 vs HEK293-pcDNA3.1
MES-SA xenografts = test: In vivo antitumor efficacy, MES-SA xenograft; design: species or system mice; conditions: 5 mg/kg, q2d, i.p.
Protocol: as §7

HEK293-MRP2 = test: Growth inhibition assay (96 h); assay type: cell-based, human; conditions: HEK293-MRP2 vs HEK293-pcDNA3.1
[11] = test system: MRP2 (over-expressed in the cells); test: Growth inhibition assay (96 h); assay type: cell-based, human; conditions: human, HEK293 cells over-expressing MRP2 (HEK293-MRP2); HEK293-MRP2, MRP2 over-expressed, 96 h
PC-3 cells [12] = test: Cell cycle analysis (PI staining, FACS); assay type: cell-based, human; conditions: Homo sapiens; PC-3, 24 h, 0.1 nM to 1 μM; read-out: EC50 of cell cycle arrest in G2M phase
Protocol: Cell cycle distribution was determined by propidium iodide (PI) staining. Treated cells were washed with PBS and fixed with 70% ice-cold ethanol overnight. Fixed cells were then stained with 20 μg/mL of PI in the presence of RNase A (300 μg/mL) at 37° C. for 30 min. Cell cycle distribution was analyzed by fluorescence-activated cell sorting (FACS).

[13] = test system: human cancer cell lines from prostate, colon, breast, and bladder; test: Cell proliferation by SRB assay, panel of cell lines; assay type: cell-based; conditions: read-out: IC50 values, range over cell lines
Protocol: as §6
Cell proliferation was measured by SRB assay.

PC-3 xenografts = test: In vivo antitumor efficacy, PC-3 xenograft; conditions: 5 mg/kg
PC-3 [14] = test: Growth inhibition assay (SRB, 96 h); assay type: cell-based, human; conditions: Homo sapiens, PC-3, 96 h
Source text: as §6

PC-3 cells [15] = test: Indirect immunofluorescence microscopy of microtubules; assay type: cell-based, human; conditions: 24 h, anti-α-tubulin-FITC
Protocol: PC-3 cells were plated on poly-D-lysine coated glass cover slips in 6-well plates (5×10^4 cells/well) the day before treatment. After cells were incubated with cytotoxic agents at 37° C. for 24 h, cells were fixed on the cover slips with 4% formaldehyde in PBS for 10 min and permeabilized by 2% Triton-X in PBS for 5 min at rt. Fixed cells were blocked with 3% bovine serum albumin in TBST for 30 min and incubated with anti-α-tubulin-FITC antibody (1:100 dilution) at 4° C. overnight. Cover slips were mounted on slides using mounting medium with 4′,6-diamidino-2-phenylindole (DAPI), followed by microscopic analysis with a Zeiss Axioplan 2 fluorescent microscope (Carl Zeiss, Thornwood, N.Y.). Images were acquired with a Zeiss Axiocam HRc, using Zeiss AxioVision.

Rotarod performance = assay type: in vivo, ICR mice; conditions: 0.5 mg/kg i.p. q2d
Protocol: The training and rotarod test was conducted as described previously. Briefly, during the training phase for 2 consecutive days (3 trials/day), mice (10 mice/group) were trained to run in a rotarod apparatus without falling at a constant speed (12 rpm) for a maximum of 2 min. For the rotarod performance test, duration of each trial was less than 5 min. […] Tests were performed for 2 weeks (2 days/week). The animals were tested in three trials per day with an intertrial interval of 30 min. Animal performance was recorded as the average elapsed time for the mice to fall off.

COc1cccc2c1C(=O)c1c(O)c3c(c(O)c1C2=O)C[C@@](O)(C(=O)CO)C[C@@H]3O[C@H]1C[C@H](N)[C@H](O)[C@H](C)O1 [Doxirubicin]
IC50 (K562/Dox [1]): 859 ± 26.8 nM | IC50 (K562 [2]): 27.1 ± 5.5 nM

c1cc(Cc2cc3ccccc3[nH]2)cc(-c2cc3ccccc3[nH]2)c1 [Compound 10, (1H-Indol-2-yl)-[3-(1H-indol-2-yl)phenyl]methane]
IC50 (DU-145): 18400 nM | IC50 (LNCaP): > 50000 nM | IC50 (PC-3 [3]): > 50000 nM | IC50 (TSU): 20000 to 50000 nM | IC50 (HT-29 [4]): 720 nM | IC50 (PPC-1): > 50000 nM | melting point: 193 to 194 °C | IC50 (CV-1): > 50000 nM

COc1cccc(C(=O)c2cccc(-c3cc4ccccc4[nH]3)c2)c1 [Compound 81, [3-(1H-Indol-2-yl)-phenyl]-(3-methoxy-phenyl)-methanone]
IC50 (DU-145): 129 nM | IC50 (MCF-7 [5]): 43 nM | IC50 (LNCaP): 47 nM | IC50 (PC-3 [3]): 72 ± 13 nM | IC50 (TSU): 42 nM | IC50 (HT-29 [4]): 100 nM | IC50 (PPC-1): 43 nM

CC(=O)O[C@@]12CO[C@@H]1C[C@H](O)[C@@]1(C)C(=O)[C@H](O)C3=C(C)[C@@H](OC(=O)[C@H](O)[C@@H](NC(=O)OC(C)(C)C)c4ccccc4)C[C@@](O)([C@@H](OC(=O)c4ccccc4)[C@H]21)C3(C)C [Docetaxel]
IC50 (K562 [6]): 2.7 ± 1 nM | resistance factor (ratio of IC50 resistant subline to parental cell line) (MES-SA/DX5): (13) | IC50 (HEK293-pcDNA3.1): 4.4 ± 2 nM | TGI (tumor growth inhibition) (MES-SA/DX5 xenografts): 9% | IC50 (MCF-7 [7]): 3.8 ± 0.8 nM | IC50 (TSU-Pr1): 2.6 ± 0.9 nM | IC50 (HT-29 [8]): 4.1 ± 0.2 nM | IC50 (K562/Dox [9]; Homo sapiens, K562/Dox, P-gp over-expressed, 96 h): 548 ± 76 nM | resistance factor (ratio of IC50 resistant subline to parental cell line) (K562/Dox [9]; K562/Dox vs K562 (P-gp)): (203) | IC50 at 96 h [10]: 31.3 ± 5 nM | resistance factor (ratio of IC50 resistant subline to parental cell line) (HEK293-MRP1): (7.2) | resistance factor (ratio of IC50 resistant subline to parental cell line) (HEK293-MRP1; listed as docetaxel): 7.2 | TGI (tumor growth inhibition) (MES-SA xenografts): 54% | resistance factor (ratio of IC50 resistant subline to parental cell line) (HEK293-MRP2): (7.6) | resistance factor (ratio of IC50 resistant subline to parental cell line) (HEK293-MRP2; listed as docetaxel): 7.6 | IC50 at 96 h [11]: 33.1 ± 4 nM | EC50 (PC-3 cells [12]): 14 nM | IC50 [13]: 1.1 to 6.3 nM | end of study survival rate (PC-3 xenografts; PC-3 xenograft, 2 days/week): less than 30% | mice survived after 3 weeks (PC-3 xenografts; male, nu/nu, mouse, in vivo, 3 weeks): 70% | IC50 (PC-3 [14]): 6 nM | microtubule changes by immunofluorescence (PC-3 cells [15]): stabilization of microtubules

CC[C@]1(O)C[C@H]2CN(CCc3c([nH]c4ccccc34)[C@@](C(=O)OC)(c3cc4c(cc3OC)N(C=O)[C@H]3[C@@](O)(C(=O)OC)[C@H](OC(C)=O)[C@]5(CC)C=CCN6CC[C@]43[C@@H]65)C2)C1 [vincristine]
rotarod performance (Rotarod performance; day 4 to day 14): impaired performance | mean time on the rotating rod (Rotarod performance; end of 2 weeks (vehicle 151 s)): 104 s

COc1cc(C(=O)c2cccc(-c3cc4cc(F)ccc4[nH]3)c2)cc(OC)c1OC [Compound 90, [3-(5-Fluoro-1H-indol-2-yl)-phenyl]-(3,4,5-trimethoxy-phenyl)-methanone]
IC50 (DU-145): 28 nM | IC50 (MCF-7 [5]): 39 nM | IC50 (LNCaP): 32 nM | IC50 (PC-3 [3]): 31 ± 4 nM | IC50 (PPC-1): 28 nM

COc1cc(OC)cc(C(=O)c2cccc(-c3cc4ccccc4[nH]3)c2)c1 [Compound 82, (3,5-Dimethoxy-phenyl)-[3-(1H-indol-2-yl)-phenyl]-methanone]
IC50 (DU-145): 134 nM | IC50 (MCF-7 [5]): 54 nM | IC50 (LNCaP): 82 nM | IC50 (PC-3 [3]): 75 ± 16 nM | IC50 (TSU): 65 nM | IC50 (HT-29 [4]): 92 nM | IC50 (PPC-1): 69 nM

COc1ccc(C(=O)c2cccc(-c3cc4ccccc4[nH]3)c2)cc1OC [Compound 83, (3,4-Dimethoxy-phenyl)-[3-(1H-indol-2-yl)-phenyl]-methanone]
IC50 (DU-145): 131 nM | IC50 (MCF-7 [5]): 43 nM | IC50 (LNCaP): 51 nM | IC50 (PC-3 [3]): 69 ± 12 nM | IC50 (TSU): 44 nM | IC50 (HT-29 [4]): 119 nM | IC50 (PPC-1): 40 nM
